From ChEMBL document CHEMBL1130649, “Rational design of a new series of mixed anti-HIV pronucleotides” (Bioorg Med Chem Lett, 1998)

Experiments:
[1] = Half-life in total CEM cell extract at Step 1; assay type: ADME, CCRF-CEM; conditions: human
CEM-SS [2] = assay: Compound was tested for inhibitory activity against HIV-1 replication in CEM-SS cells; assay type: functional, cell-based; conditions: Homo sapiens
[3] = Half-life in RPMI 1640 containing 10% heat inactivated fetal calf serum culture medium at step 1; assay type: ADME, Bos taurus; conditions: cattle
CCRF-CEM [4] = assay: Compound was tested for inhibitory activity against HIV-1 replication in CEM/TK- cells; assay type: functional, cell-based; conditions: Homo sapiens
CEM-SS [5] = assay: Compound was tested for cytotoxicity against HIV-1 in CEM-SS cells; assay type: functional; conditions: Homo sapiens
CCRF-CEM [6] = assay: Compound was tested for cytotoxicity against HIV-1 in CEM/TK- cells; assay type: functional; conditions: Homo sapiens

| SMILES | half-life [1] [h] | IC50 (CEM-SS [2]) [µM] | half-life [3] [h] | IC50 (CCRF-CEM [4]) [µM] | CC50 (CEM-SS [5]) [µM] | CC50 (CCRF-CEM [6]) [µM] |
| --- | --- | --- | --- | --- | --- | --- |
| Cc1cn([C@H]2C[C@H](N=[N+]=[N-])[C@@H](COP(=O)(OCCSC(=O)C(C)(C)C)Oc3ccc(CC(N)C(=O)O)cc3)O2)c(=O)[nH]c1=O.Cl (stereo partly specified) | 1.4 | 0.006 | 86.4 | 29 | > 90 | 90 |
| Cc1cn([C@H]2C[C@H](N=[N+]=[N-])[C@@H](COP(=O)(OCCSC(=O)C(C)(C)C)Oc3ccccc3)O2)c(=O)[nH]c1=O (stereo partly specified) | 1.2 | 0.001 | 72 | 3.5 | > 10 | > 10 |
| Cc1cn([C@H]2C[C@H](N=[N+]=[N-])[C@@H](CO)O2)c(=O)[nH]c1=O [ZIDOVUDINE] | – | 0.006 | – | > 100 | > 100 | > 100 |
